{"source": "patent US20140024683A1", "about": "“CHLORIDE CHANNEL AND CHLORIDE TRANSPORTER MODULATORS FOR THERAPY IN SMOOTH MUSCLE DISEASES” (priority 2011, published 2014)", "key": {"[1]": {"tested_on": "guinea pig tracheal rings", "test": "Relaxation of potassium gluconate contraction in guinea pig tracheal rings", "conditions": "100 μM, 80 mM potassium gluconate", "description": "Animal protocols were approved by the Columbia University Animal Care and Use Committee. Male Hartley guinea pigs weighing approximately 400 g were anesthetized with intraperitoneal injection of sodium pentobarbital (100 mg/kg). Trachea were removed and transferred to ice cold Krebs-Henseleit (KH) buffer of the following composition (in mM): NaCl 118, KCl 5.6, CaCl2 0.5, MgSO4 0.24, NaH2PO4 1.3, NaHCO3 25, glucose 5.6, pH 7.4. Epithelial-denuded tracheal rings were prepared using a dissecting microscope. Epithelium was removed by gently passing cotton fibers through the lumen of the tracheal rings. The rings were suspended in 4 mL-water jacketed organ baths (37° C.: Radnoti Glass Technology, Monrovia, Calif.) and connected to a Grass FT03 force transducer (Grass Telefactor, West Warwick, R.I.) using silk sutures. The transducers were coupled to the computer with BioPac hardware and data was collected using Acqknowledge 7.3.3 software (BioPac Systems, Goleta, Calif.). KH buffer was bubbled with a gas mixture of 95% oxygen and 5% carbon dioxide and buffer was exchanged every 15 minutes for 1 hour during equilibration of tracheal rings at 1 g resting tension. […].\nMany chloride channel blockers are known to also stimulate potassium channels (Greenwood et al., 2007). Thus, we performed additional studies in the presence of a large extracellular concentration of potassium to ensure that our findings of compound 1 or 13 inhibiting a TEA-induced depolarizing contraction were not due to these compounds opening a potassium channel."}, "[2]": {"tested_on": "human airway smooth muscle cells", "test": "Whole cell current clamp recording of membrane potential", "assay_type": "cell-based", "description": "Induced electrophysiological changes in membrane potential and current were measured using traditional whole cell patch clamp methods. Immortalized human airway smooth muscle cells were grown to confluence on collagen-treated T25 flasks. Collagenase type IV in SmBM2 medium (Lonza, Walkersville, Md.) was used to release cells adherent to the collagen matrix in the flask. Medium with cells in suspension was then harvested in a 10-ml conical tube and centrifuged at 300×g. Supernatant was removed, and the pellet was resuspended in SmBM2 medium and transferred into collagen-treated glass bottom 1-cm Petri dishes at about 10% confluence. Each dish was then incubated at 37° C. and 5% CO2 for 1-4 hours for reattachment of cells to glass-bottom Petri dishes.\nGlass-bottom dishes served as a disposable recording chamber. ALA VM-8, an 8-chamber pressure-driven drug application system, was used in a still bath of extracellular salt solution. Whole-cell intracellular voltage recordings under current clamp conditions were performed with a 2-kHz Bessel filter, recording at 10 kHz using an Axopatch 200b amplifier (Axon Instruments, Foster City, Calif., USA). Electrodes were pulled using a P-97 micropipette puller from 1.5-mm OD borosilicate capillary glass (Sutter Instruments, Novato, Calif., USA). Glass electrode resistances ranged from 5 to 10 MO with intracellular solution. Whole-cell intracellular current recordings under voltage-clamp conditions were performed with a 2-kHz Bessel filter, recording at 10 kHz using an Axopatch 200b amplifier. For current measurements (FIG. 11) intracellular solutions consisted of (in mM) 140 TEA-Cl, 5 MgATP, 5 EGTA, 1 MgCl2, 10 HEPES, and 5 CaCl2 (pH 7.2). Extracellular solution consisted of (in mM) 134 NaCl, 1.4 KCl, 10 HEPES, 1 MgCl2, 1.8 CaCl2, and 10 glucose (pH 7.4). This induced the classic spontaneously transient inward currents (STICs) and spontaneously transient outward currents (STOCs) well described in this cell type. STOCs are believed to represent activation of calcium activated potassium (KCa) channels while STICs are believed to represent activation of CaCCs. TEA-Cl was included in the buffer to enhance STICs which were then recorded during the addition of 100 μM niflumic acid. When recording TEA- and niflumic acid-induced responses on membrane potential (ΔmV), the intracellular solutions contained (in mM) 140 KCl, 5 MgATP, 5 EGTA, 1 MgCl2, 10 HEPES, and 5 CaCl2 (pH 7.2), and the extracellular solutions consisted of (in mM) 134 NaCl, 5 MgATP, 5 EGTA, 1 MgCl2, 10 HEPES, and 5 CaCl2 (pH 7.2). All recordings were analyzed on Clampfit 8.0 software (Molecular Devices)."}}, "data": [{"molecule": "O=C(O)c1cccnc1Nc1cccc(C(F)(F)F)c1", "note": "[niflumic acid]", "values": [{"measurement": "percent of potassium gluconate-induced contraction at 30 minutes", "setting": "[1]", "result": "47.36%±4.6"}, {"measurement": "percent of potassium gluconate-induced contraction at 30 minutes", "setting": "[1]; listed as NFA", "result": "47.4%±4.6"}, {"measurement": "membrane potential (whole cell current clamp)", "setting": "[2]; 100 μM niflumic acid", "result": "hyperpolarizes the plasma membrane"}, {"measurement": "membrane potential (whole cell current clamp) after depolarization", "setting": "[2]; following depolarization with TEA chloride", "result": "reverses membrane potential"}]}]}
